According to ChEMBL document CHEMBL1158508, “Molecular modeling study of 4-phenylpiperazine and 4-phenyl-1,2,3,6-tetrahydropyridine derivatives: a new step towards the design of high-affinity 5-HT1A ligands” (Bioorg Med Chem Lett, 2010):

Key:
[1] = target: T1, 5-hydroxytryptamine receptor 1A (Homo sapiens, UniProt P08908); assay: Inhibition of 5HT1A receptor
T1 sequence (P08908 whole entry): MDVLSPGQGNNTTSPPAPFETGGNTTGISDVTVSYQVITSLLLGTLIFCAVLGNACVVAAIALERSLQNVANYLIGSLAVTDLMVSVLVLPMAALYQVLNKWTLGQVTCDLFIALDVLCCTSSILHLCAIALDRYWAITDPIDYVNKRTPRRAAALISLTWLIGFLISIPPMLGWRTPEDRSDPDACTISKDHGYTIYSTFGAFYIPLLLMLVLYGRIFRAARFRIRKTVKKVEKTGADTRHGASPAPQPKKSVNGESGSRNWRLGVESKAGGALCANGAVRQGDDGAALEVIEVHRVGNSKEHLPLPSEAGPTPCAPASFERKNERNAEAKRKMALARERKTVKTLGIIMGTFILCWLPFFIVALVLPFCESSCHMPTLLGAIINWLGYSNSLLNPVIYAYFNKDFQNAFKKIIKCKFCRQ

[2] = target: 5-hydroxytryptamine receptor 7 (Homo sapiens, UniProt P34969); assay: Binding affinity to 5HT7 receptor
5-hydroxytryptamine receptor 7, sequence (P34969 whole entry): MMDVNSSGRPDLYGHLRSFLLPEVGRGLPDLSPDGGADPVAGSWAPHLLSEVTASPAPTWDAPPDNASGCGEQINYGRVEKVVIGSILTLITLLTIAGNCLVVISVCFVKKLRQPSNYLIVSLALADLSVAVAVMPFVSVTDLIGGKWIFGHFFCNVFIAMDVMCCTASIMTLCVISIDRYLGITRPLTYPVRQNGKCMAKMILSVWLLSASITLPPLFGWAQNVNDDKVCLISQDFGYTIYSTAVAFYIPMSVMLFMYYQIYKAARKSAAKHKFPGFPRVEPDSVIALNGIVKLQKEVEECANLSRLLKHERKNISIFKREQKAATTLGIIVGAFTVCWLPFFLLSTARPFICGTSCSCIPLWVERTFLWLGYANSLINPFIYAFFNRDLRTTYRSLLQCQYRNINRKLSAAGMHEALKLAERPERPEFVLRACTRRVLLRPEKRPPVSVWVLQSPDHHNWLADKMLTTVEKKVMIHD

| Compound | IC50 [1] | Ki [2] |
| --- | --- | --- |
| COc1ccc2[nH]cc(CCCCN3CC=C(c4ccccc4)CC3)c2c1 | 20 nM |  |
| O=C1Nc2cccc3c2C1(CCCCN1CCN(c2ccccc2)CC1)CCC3 (racemic) |  | 2.14 nM |
| Oc1ccc2[nH]cc(CCCCN3CC=C(c4ccccc4)CC3)c2c1 [ROXINDOLE] | 0.8 nM |  |
| O=C1Nc2cccc3c2C1(CCCCN1CC=C(c2ccccc2)CC1)CCC3 (racemic) |  | 3.31 nM |
